Where two headings read alike, the source gives them in different places.

Format in all cases: cell-based
One experiment has as its system human PBMCs. The experiment is described as follows: Cellular Functional Assay III: IFN-β production from human PBMCs. The conditions noted are these: PBMC. As to the method: Frozen human PBMCs (BioIVT Inc.) were thawed first in a 37° C. water bath, then washed with RPMI/10% FBS/2 mM EDTA medium twice before establishing a viable cell count by Trypan Blue. The final cell density for each donor was 5×10^6 cells per well with RPMI/10% FBS medium in a 96 well u-bottom plate.
Human PBMCs were then incubated with testing compounds with indicated concentrations and control for 4 hours at 37° C. in cell culture incubator. After incubation, supernatant was collected and used for measuring induced cytokine level by cytometric bead array analysis.

Another experiment has as its target hSTING-wt (Homo sapiens, UniProt Q86WV6). The experiment is described as follows: Cellular Functional Assay I: ISRE-SEAP reporter in HEK-293T-Dual Null cells transfected with hSTING-wt. The settings on record: HEK-293T-Dual Null, hSTING-wt.
A further experiment has as its target hSTING-H232 (Homo sapiens, UniProt Q86WV6). The experiment is described as follows: Cellular Functional Assay I: ISRE-SEAP reporter in HEK-293T-Dual Null cells transfected with hSTING-H232. The conditions noted are these: HEK-293T-Dual Null, hSTING-H232.
Another experiment deals with hSTING-HAQ (Homo sapiens, UniProt Q86WV6, G230A/H232R/R293Q/R71H). The experiment can be described thus: Cellular Functional Assay I: ISRE-SEAP reporter in HEK-293T-Dual Null cells transfected with hSTING-HAQ. The settings on record: HEK-293T-Dual Null, hSTING-HAQ.
The next experiment addresses T1, hSTING-Q (Homo sapiens, UniProt Q86WV6, R293Q).
T1 construct: expressed in transfected cells
The experiment is described as follows: Cellular Functional Assay I: ISRE-SEAP reporter, hSTING-Q allele.

Another experiment has as its target T2, hSTING-AQ (Homo sapiens, UniProt Q86WV6, G230A/R293Q).
T2 construct: expressed in transfected cells
The experiment is described as follows: Cellular Functional Assay I: ISRE-SEAP reporter, hSTING-AQ allele.

A further experiment deals with T3, mSTING-wt (Mus musculus, UniProt Q3TBT3).
T3 sequence (Q3TBT3 1-378): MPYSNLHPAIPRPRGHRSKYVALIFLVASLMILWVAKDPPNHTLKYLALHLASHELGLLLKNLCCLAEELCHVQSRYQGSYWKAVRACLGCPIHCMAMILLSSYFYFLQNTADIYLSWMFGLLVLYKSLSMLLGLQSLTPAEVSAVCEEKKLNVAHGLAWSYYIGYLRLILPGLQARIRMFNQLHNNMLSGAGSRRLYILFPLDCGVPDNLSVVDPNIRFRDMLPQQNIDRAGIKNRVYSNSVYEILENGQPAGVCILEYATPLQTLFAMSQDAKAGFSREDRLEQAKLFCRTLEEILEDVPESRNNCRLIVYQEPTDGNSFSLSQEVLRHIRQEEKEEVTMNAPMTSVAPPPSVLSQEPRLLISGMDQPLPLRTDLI
The experiment can be described thus: Cellular Functional Assay I: ISRE-SEAP reporter in HEK-293T-Dual Null cells transfected with mouse STING. The settings on record: SEAP reporter, HEK-293T-Dual Null, mSTING-wt; read-out: EC50 mSTING-wt.

Setting [1] is: Donor 1, 4 hours, read-out: Potency (IFN-β production) in Human PBMCs (EC50s) Donor 1.
Setting [2] is: Donor 2, 4 hours, read-out: Potency (IFN-β production) in Human PBMCs (EC50s) Donor 2.
Setting [3] is: Donor 3, 4 hours, read-out: Potency (IFN-β production) in Human PBMCs (EC50s) Donor 3.
[4] abbreviates: Donor 4, 4 hours, read-out: Potency (IFN-β production) in Human PBMCs (EC50s) Donor 4.

Sequence of hSTING-HAQ (Q86WV6 whole entry R71H/G230A/H232R/R293Q): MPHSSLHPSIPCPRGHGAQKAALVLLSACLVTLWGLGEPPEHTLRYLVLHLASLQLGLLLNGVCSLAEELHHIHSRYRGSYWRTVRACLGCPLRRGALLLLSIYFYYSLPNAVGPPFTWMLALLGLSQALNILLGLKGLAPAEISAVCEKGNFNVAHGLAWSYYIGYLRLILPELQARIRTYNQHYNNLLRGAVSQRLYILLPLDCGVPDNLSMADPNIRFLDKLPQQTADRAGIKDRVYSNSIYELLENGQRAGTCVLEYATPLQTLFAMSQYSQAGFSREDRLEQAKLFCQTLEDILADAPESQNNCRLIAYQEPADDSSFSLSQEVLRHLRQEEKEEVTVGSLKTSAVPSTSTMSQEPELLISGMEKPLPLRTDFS
T1 sequence (Q86WV6 whole entry R293Q): as the sequence (Q86WV6 whole entry R71H/G230A/H232R/R293Q) above, with H71R, A230G, R232H counted along it
Sequence of hSTING-wt (Q86WV6 whole entry H232R): as the sequence (Q86WV6 whole entry R71H/G230A/H232R/R293Q) above, with H71R, A230G, Q293R counted along it
Sequence of hSTING-H232 (Q86WV6 whole entry): as the sequence (Q86WV6 whole entry R71H/G230A/H232R/R293Q) above, with H71R, A230G, R232H, Q293R counted along it
T2 sequence (Q86WV6 whole entry G230A/H232R/R293Q): as the sequence (Q86WV6 whole entry R71H/G230A/H232R/R293Q) above, with H71R counted along it

Turning to `[2H]C1([2H])OC([2H])([2H])C([2H])([2H])N(CCCOc2cc(C(N)=O)cc3nc(NC(=O)c4cc(C)nn4CC)n(C/C=C/Cn4c(NC(=O)c5cc(C)nn5CC)nc5cc(C(N)=O)cnc54)c23)C1([2H])[2H]` [Compound W, 3-[(E)-4-[5-carbamoyl-2-[(2-ethyl-5-methyl-pyrazole-3-carbonyl)amino]-7-[3-(2,2,3,3,5,5,6,6-octadeuteriomorpholin-4-yl)propoxy]benzimidazol-1-yl]but-2-enyl]-2-[(2-ethyl-5-methyl-pyrazole-3-carbonyl)amino]imidazo[4,5-b]pyridine-6-carboxamide], the EC50 with human PBMCs (setting [1]) was 0.1 to 0.5 µM; with human PBMCs (setting [2]) it was 0.1 to 0.5 µM; with human PBMCs (setting [3]) it was less than 0.1 µM; in the experiment with human PBMCs (setting [4]) it was 0.1 to 0.5 µM; on hSTING-wt it was 0.001 to 0.5 µM; at hSTING-H232 it was 0.001 to 0.5 µM. Moreover, the EC50 on hSTING-HAQ, at hSTING-Q, on hSTING-AQ and at mSTING-wt was 0.001 to 0.5 µM each time.
In the case of `CCn1nc(C)cc1C(=O)Nc1nc2cc(C(N)=O)cnc2n1C/C=C/Cn1c(NC(=O)c2cc(C)nn2CC)nc2cc(C(N)=O)cc(OCCCN3CCN(C(C)=O)CC3)c21` [Compound X, 3-[(E)-4-[7-[3-(4-acetylpiperazin-1-yl)propoxy]-5-carbamoyl-2-[(2-ethyl-5-methyl-pyrazole-3-carbonyl)amino]benzimidazol-1-yl]but-2-enyl]-2-[(2-ethyl-5-methyl-pyrazole-3-carbonyl)amino]imidazo[4,5-b]pyridine-6-carboxamide], the EC50 lay within 0.1 to 0.5 µM in the experiment with human PBMCs (setting [1]); 0.1 to 0.5 µM in the experiment on human PBMCs (setting [2]); 0.1 to 0.5 µM with human PBMCs (setting [3]); 0.1 to 0.5 µM in the experiment on human PBMCs (setting [4]); 0.001 to 0.5 µM at hSTING-wt; 0.001 to 0.5 µM at hSTING-H232. Also, the EC50 on hSTING-HAQ, on hSTING-Q, on hSTING-AQ and on mSTING-wt was 0.001 to 0.5 µM each time.
Turning to `CCn1nc(C)cc1C(=O)Nc1nc2cc(C(N)=O)cnc2n1C/C=C/Cn1c(NC(=O)c2cc(C)nn2CC)nc2cc(C(N)=O)cc(OCCCN3CCC[C@H]3COC(F)F)c21` [Compound Y, 3-[(E)-4-[5-carbamoyl-7-[3-[(2S)-2-(difluoromethoxymethyl)pyrrolidin-1-yl]propoxy]-2-[(2-ethyl-5-methyl-pyrazole-3-carbonyl)amino]benzimidazol-1-yl]but-2-enyl]-2-[(2-ethyl-5-methyl-pyrazole-3-carbonyl)amino]imidazo[4,5-b]pyridine-6-carboxamide], the EC50 is less than 0.1 µM in the experiment with human PBMCs (setting [1]); less than 0.1 µM in the experiment with human PBMCs (setting [2]); less than 0.1 µM with human PBMCs (setting [3]); less than 0.1 µM in the experiment with human PBMCs (setting [4]); less than 0.001 µM at hSTING-wt; less than 0.001 µM on hSTING-H232. Besides, the EC50 at hSTING-HAQ, on hSTING-Q, at hSTING-AQ and on mSTING-wt was 0.001 to 0.5 µM in each case.

These data come from patent US20200031825A1, “HETEROAROMATIC-FUSED IMIDAZOLYL AMIDES, COMPOSITIONS AND USES THEREOF AS STING AGONISTS” (Trillium Therapeutics Inc., priority 2018, published 2020).
